In paper PMC6156440, “A Class 1 Histone Deacetylase as Major Regulator of Secondary Metabolite Production in Aspergillus nidulans” (Frontiers in Microbiology, 2018) one finds inhibition data, which are given here for 1 compound.

The assay concerns the target T1, HosA (TAP-tagged HosA) (Aspergillus nidulans, UniProt Q5B6M4).
T1 construct: gene ANIA_03806; TAP-tagged HosA expressed in A. nidulans hosA deletion strain under xylPp; IgG-Sepharose pull-down under native conditions, eluted by TEV protease (CBP part of tag kept); enriched fraction, endogenous complex partners not examined
T1 sequence (Q5B6M4 1-482): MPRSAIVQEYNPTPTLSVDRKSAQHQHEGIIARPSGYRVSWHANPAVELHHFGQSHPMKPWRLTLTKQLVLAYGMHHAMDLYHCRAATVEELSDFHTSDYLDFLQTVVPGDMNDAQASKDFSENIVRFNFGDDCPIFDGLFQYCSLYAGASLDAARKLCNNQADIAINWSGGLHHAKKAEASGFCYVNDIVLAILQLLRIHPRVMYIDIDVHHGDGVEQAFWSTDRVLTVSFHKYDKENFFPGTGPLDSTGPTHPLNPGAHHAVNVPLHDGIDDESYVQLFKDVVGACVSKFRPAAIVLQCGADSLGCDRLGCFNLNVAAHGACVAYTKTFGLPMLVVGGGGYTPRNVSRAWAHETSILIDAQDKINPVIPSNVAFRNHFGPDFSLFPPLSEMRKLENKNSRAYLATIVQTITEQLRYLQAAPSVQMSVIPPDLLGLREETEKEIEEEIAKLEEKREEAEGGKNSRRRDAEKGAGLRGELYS
The assay is described as follows: fluorometric HDAC assay, labelled acetylated peptide substrate (EMD Millipore kit). In kind it is biochemical. Particulars: read-out: % inhibition at 100 nM.

What is called inhibition is how much of the control response was suppressed. `CC(/C=C/C(=O)NO)=C\[C@@H](C)C(=O)c1ccc(N(C)C)cc1` [TSA, trichostatin A]: the inhibition at 0.1 µM is over 60%.
